# Measurements reported in paper PMC12401824, “Studies on the impact of modifications at the Gln-Trp site in RM2-based GRPR ligands” (EJNMMI Research, 2025).
# Where “and” joins values, the source holds several entries; their conditions need not be identical. Equal entries are not always repeated. Entries after “also recorded” stand apart in the source; their conditions may differ. Where two headings read alike, the source gives them in different places. Starred links: 1 amine or outer side, 2 acyl side, 3 side chain; linkers in the order of their positions; H or OH if unused. Non-standard residues stand in square brackets, D forms with d. Residues, ends and D or L forms follow the SMILES beside them. *: point of attachment. DOTA = O=C(O)CN1CCN(CC(=O)O)CCN(CC(=O)*)CCN(CC(=O)O)CC1; Sta = CC(C)C[C@H](N)[C@@H](O)CC(=O)O; Bta = N[C@@H](Cc1csc2ccccc12)C(=O)O; X1 = O=C(CN1CCC(N[*:1])CC1)[*:2]; hSer = N[C@@H](CCO)C(=O)O
# How the values were obtained:
# [1] = Metabolic stability in vivo in mice (intact tracer in serum); conditions: ^177Lu-labeled, healthy mice
# Procedure: Metabolic stability in vivo was determined according to a previously published protocol by injecting approximately 30–40 MBq (1 nmol, 150 µL) of the ^177Lu-labeled compounds into the tail vein of anesthetized CB17-SCID mice (n = 3).
# [2] = Biodistribution in PC-3 tumor-bearing CB17-SCID mice; assay type: in vivo; conditions: mouse, intravenous, 100 pmol, ^177Lu-labeled, 100 pmol, n = 4; for tissue uptake at 1 h: 1 h p.i.; for tissue uptake at 24 h: 24 h p.i.
# Procedure: To establish tumor xenografts, PC-3 cells (5.0 × 10^6 cells per 200 µL) were suspended in a 1/1 mixture (v/v) of Dulbecco’s modified eagle's medium/Ham’s F-12 with Glutamax-I (v/v = 1/1) and Cultrex® Basement Membrane Matrix Type 3 (Trevigen Inc., Gaithersburg, MD, USA) and inoculated subcutaneously onto the right shoulder of CB17-SCID mice (Charles River Laboratories International Inc., Sulzfeld, Germany). Mice (n = 4) were used for experiments when tumor volume has reached 125–500 mm^3 (2–3 weeks after inoculation).
# Biodistribution. […] (n = 4), respectively. Selected organs were removed, weighted and measured in a γ-counter.
# PC-3 tumor xenograft = experiment: Competition study: co-injection of excess Lu-RM2 in PC-3 tumor-bearing mice; assay type: in vivo; conditions: ^177Lu-labeled, 100 pmol; co-injection of 40 nmol Lu-RM2; 1 h p.i.; n = 3
# Procedure: µPET/CT imaging. Imaging studies were performed at a MILabs VECTor^4 small-animal SPECT/PET/OI/CT device (MILabs, Utrecht, the Netherlands). Data were reconstructed using the MILabs Rec software (version 10.02) and a pixel-based Similarity-Regulated Ordered Subsets Expectation Maximization (SROSEM) algorithm, followed by data analysis using the PMOD4.0 software (PMOD TECHNOLOGIES LLC, Zurich, Switzerland). […] Static images were recorded at 1 h p.i. with an acquisition time of 45–60 min (3–4 frames, 15 min each) using the HE-GP-RM collimator and a step-wise multi-planar bed movement. Depending on the size of the mouse, either four or eight bed position were required, with an imaging time of ~ 1.8 min or ~ 3.6 min per bed position. For competition studies, 3.62 mg/kg (40 nmol) of Lu-RM2 (10^−3 M in PBS) were co-administered.
# Figure S6. […] Data are expressed as mean ± SD (n = 4). […] Data are expressed as mean ± SD (n = 3).
# [3] = adrenal, read-out: Uptake in Adrenal
# [4] = blood, read-out: Uptake in Blood
# [5] = heart, read-out: Uptake in Heart
# [6] = intestine, read-out: Uptake in Intestine
# [7] = kidney, read-out: Uptake in Kidney
# [8] = liver, read-out: Uptake in Liver
# [9] = muscle, read-out: Uptake in Muscle
# [10] = pancreas, read-out: Uptake in Pancreas
# [11] = spleen, read-out: Uptake in Spleen
# [12] = stomach, read-out: Uptake in Stomach
# [13] = tumor, read-out: Uptake in Tumor
"Intact compound in murine serum in vivo, 15 min after injection [1]","tissue uptake at 1 h [2, 3]","tissue uptake at 24 h [2, 3]","tissue uptake at 1 h [2, 4]","tissue uptake at 24 h [2, 4]","tissue uptake at 1 h ([2]; bone, read-out: Uptake in Bone)","tissue uptake at 24 h ([2]; bone, read-out: Uptake in Bone)","tissue uptake at 1 h [2, 5]","tissue uptake at 24 h [2, 5]","tissue uptake at 1 h [2, 6]","tissue uptake at 24 h [2, 6]","tissue uptake at 1 h [2, 7]","tissue uptake at 24 h [2, 7]","tissue uptake at 1 h [2, 8]","tissue uptake at 24 h [2, 8]","tissue uptake at 1 h ([2]; lung, read-out: Uptake in Lung)","tissue uptake at 24 h ([2]; lung, read-out: Uptake in Lung)","tissue uptake at 1 h [2, 9]","tissue uptake at 24 h [2, 9]",SMILES,"Intact compound in murine serum in vivo, 30 min after injection [1]",other results
< 20% and ~ 10%,1.1 ± 0.1 %ID/g,0.59 ± 0.33 %ID/g,1.6 ± 0.1 %ID/g,0.04 ± 0.04 %ID/g,0.9 %ID/g,2.58 ± 1.05 %ID/g,0.7 %ID/g,0.09 ± 0.01 %ID/g,1 ± 0.3 %ID/g,0.28 ± 0.07 %ID/g,4.4 ± 0.4 %ID/g,2.07 ± 0.23 %ID/g,1.1 ± 0.1 %ID/g,0.77 ± 0.09 %ID/g,1.8 ± 0.2 %ID/g,0.22 ± 0.11 %ID/g,0.2 ± 0.1 %ID/g,0.02 ± 0.02 %ID/g,"CC(C)C[C@H](NC(=O)C[C@H](O)[C@H](CC(C)C)NC(=O)[C@H](Cc1c[nH]cn1)NC(=O)CNC(=O)[C@@H](NC(=O)[C@H](C)NC(=O)[C@H](Cc1csc2ccccc12)NC(=O)[C@H](CCC(N)=O)NC(=O)[C@@H](Cc1ccccc1)NC(=O)CN1CCC(NC(=O)CN2CCN(CC(=O)O)CCN(CC(=O)O)CCN(CC(=O)O)CC2)CC1)C(C)C)C(N)=O [[^177Lu]Lu-[Bta^8]RM2, metal not drawn] ({DOTA}-[X1][dF]Q[Bta]AVGH[Sta]L-NH2)",did not show any intact; also recorded: could not detect any intact,"tissue uptake at 1 h [2, 10]: 3.7 ± 1.4 %ID/g; tissue uptake at 24 h [2, 10]: 0.17 ± 0.02 %ID/g; tissue uptake at 24 h [2, 11]: 0.32 ± 0.06 %ID/g; tissue uptake at 1 h [2, 12]: 1.3 ± 0.3 %ID/g; tissue uptake at 24 h [2, 12]: 0.27 ± 0.08 %ID/g; tissue uptake at 1 h [2, 13]: 12.1 ± 1.8 %ID/g; tissue uptake at 24 h [2, 13]: ~2 %ID/g; Specificity of tumor accumulation (competition with excess of Lu-RM2) (PC-3 tumor xenograft): specific"
< 20% and ~ 19%,1.2 ± 0.5 %ID/g,0.61 ± 0.21 %ID/g,1 ± 0.2 %ID/g,0.02 %ID/g,0.2 %ID/g,2.37 ± 1.13 %ID/g,0.4 ± 0.1 %ID/g,0.11 ± 0.03 %ID/g,1.6 ± 0.2 %ID/g,0.38 ± 0.11 %ID/g,4.8 ± 0.3 %ID/g,1.94 ± 0.28 %ID/g,0.9 ± 0.1 %ID/g,0.96 ± 0.15 %ID/g,0.9 ± 0.2 %ID/g,0.17 ± 0.02 %ID/g,0.2 %ID/g,0.01 %ID/g,"CC(C)C[C@H](NC(=O)C[C@H](O)[C@H](CC(C)C)NC(=O)[C@H](Cc1c[nH]cn1)NC(=O)CNC(=O)[C@@H](NC(=O)[C@H](C)NC(=O)[C@H](Cc1c[nH]c2ccccc12)NC(=O)[C@H](CCO)NC(=O)[C@@H](Cc1ccccc1)NC(=O)CN1CCC(NC(=O)CN2CCN(CC(=O)O)CCN(CC(=O)O)CCN(CC(=O)O)CC2)CC1)C(C)C)C(N)=O [[^177Lu]Lu-[Hse^7]RM2, metal not drawn] ({DOTA}-[X1][dF][hSer]WAVGH[Sta]L-NH2)",did not show any intact; also recorded: could not detect any intact,"tissue uptake at 1 h [2, 10]: 8 ± 0.5 %ID/g; tissue uptake at 24 h [2, 10]: 0.14 ± 0.01 %ID/g; tissue uptake at 1 h [2, 11]: 0.6 ± 0.2 %ID/g; tissue uptake at 24 h [2, 11]: 0.36 ± 0.03 %ID/g; tissue uptake at 1 h [2, 12]: 2.2 ± 0.3 %ID/g; tissue uptake at 24 h [2, 12]: 0.26 ± 0.01 %ID/g; tissue uptake at 1 h [2, 13]: 16.6 ± 1.6 %ID/g; tissue uptake at 24 h [2, 13]: ~2 %ID/g; Specificity of tumor accumulation (competition with excess of Lu-RM2) (PC-3 tumor xenograft): specific"
